The values below are quoted from earlier work in US20030236306A1, “Stabilized formulations of alpha adrenergic receptor antagonists and the uses thereof” (priority 2002, published 2003).

The conditions of the data set: systemic doses, usually with marked hypotensive episodes; cited from earlier work.

Counter-ions that a name gives are not always drawn.

For the compound `Cc1ccc(N(CC2=NCCN2)c2cccc(O)c2)cc1` [Phentolamine Mesylate, phentolamine mesylate], the “side effects reported in package insert” value is “Myocardial infarction, cerebrovascular spasm, and cerebrovascular occlusion have been reported”.
